From the CheMixHub ionic liquid set
± gives the uncertainty stated by the source.

Test: xn = mol fraction of the nth substance listed

CC[N+](CC)(CC)CC.[Cl-] + CNCCO
101.3 kPa
Conditions	viscosity [mPa·s]
293.15 K, x1 = 0.1413	23.7 ± 2.4
303.15 K, x1 = 0.1114	14.3 ± 1.4
308.15 K, x1 = 0.09139	11.4 ± 1.1
313.15 K, x1 = 0.1413	10.3 ± 1
318.15 K, x1 = 0.1413	8.78 ± 0.88
323.15 K, x1 = 0.1114	7.1 ± 0.71
323.15 K, x1 = 0.1413	7.56 ± 0.76
328.15 K, x1 = 0.09139	5.45 ± 0.55

CCCCc1n(S(=O)(=O)O)cc[n+]1S(=O)(=O)O.O=C([O-])C(F)(F)F + CO
electrical conductivity [S/m], 101 kPa
Conditions	x1 = 0.0104	x1 = 0.0205	x1 = 0.02551
298.15 K	1.59 ± 0.032	2.16 ± 0.043	–
308.15 K	–	–	2.28 ± 0.046

CC[n+]1ccn(C)c1C.O=S(=O)([N-]S(=O)(=O)C(F)(F)F)C(F)(F)F + COC(=O)OC
viscosity [mPa·s], 101.3 kPa
Conditions	288.15 K	293.15 K	298.15 K	303.15 K	308.15 K	313.15 K
x1 = 0.002023	0.685 ± 0.015	0.64 ± 0.014	0.601 ± 0.013	0.564 ± 0.012	0.532 ± 0.012	0.502 ± 0.011
x1 = 0.003635	0.702 ± 0.015	0.655 ± 0.014	0.613 ± 0.013	0.576 ± 0.013	0.542 ± 0.012	0.512 ± 0.011
x1 = 0.004511	0.715 ± 0.016	0.668 ± 0.015	0.625 ± 0.014	0.589 ± 0.013	0.556 ± 0.012	0.525 ± 0.011
x1 = 0.006328	0.731 ± 0.016	0.682 ± 0.015	0.637 ± 0.014	0.599 ± 0.013	0.563 ± 0.012	0.531 ± 0.012
x1 = 0.007386	0.745 ± 0.016	0.694 ± 0.015	0.65 ± 0.014	0.609 ± 0.013	0.573 ± 0.013	0.541 ± 0.012
x1 = 0.008644	0.76 ± 0.017	0.706 ± 0.015	0.66 ± 0.014	0.618 ± 0.014	0.58 ± 0.013	0.548 ± 0.012
x1 = 0.01069	0.79 ± 0.017	0.73 ± 0.016	0.681 ± 0.015	0.638 ± 0.014	0.603 ± 0.013	0.569 ± 0.012
x1 = 0.01174	0.798 ± 0.017	0.741 ± 0.016	0.691 ± 0.015	0.646 ± 0.014	0.607 ± 0.013	0.571 ± 0.012
x1 = 0.01299	0.815 ± 0.018	0.757 ± 0.017	0.705 ± 0.015	0.66 ± 0.014	0.619 ± 0.014	0.582 ± 0.013
x1 = 0.01405	0.825 ± 0.018	0.766 ± 0.017	0.714 ± 0.016	0.666 ± 0.015	0.625 ± 0.014	0.588 ± 0.013
x1 = 0.01538	0.844 ± 0.018	0.782 ± 0.017	0.728 ± 0.016	0.68 ± 0.015	0.637 ± 0.014	0.599 ± 0.013
x1 = 0.01591	0.848 ± 0.019	0.786 ± 0.017	0.731 ± 0.016	0.683 ± 0.015	0.639 ± 0.014	0.601 ± 0.013
x1 = 0.01645	0.854 ± 0.019	0.791 ± 0.017	0.736 ± 0.016	0.687 ± 0.015	0.643 ± 0.014	0.605 ± 0.013
x1 = 0.01685	0.86 ± 0.019	0.796 ± 0.017	0.74 ± 0.016	0.691 ± 0.015	0.647 ± 0.014	0.608 ± 0.013
x1 = 0.01703	0.864 ± 0.019	0.8 ± 0.018	0.744 ± 0.016	0.694 ± 0.015	0.651 ± 0.014	0.611 ± 0.013
x1 = 0.02124	0.91 ± 0.02	0.841 ± 0.018	0.781 ± 0.017	0.727 ± 0.016	0.681 ± 0.015	0.639 ± 0.014
x1 = 0.02489	0.946 ± 0.021	0.873 ± 0.019	0.81 ± 0.018	0.755 ± 0.016	0.706 ± 0.015	0.662 ± 0.014
x1 = 0.02663	0.965 ± 0.021	0.891 ± 0.019	0.826 ± 0.018	0.771 ± 0.017	0.72 ± 0.016	0.676 ± 0.015
x1 = 0.0275	0.978 ± 0.021	0.903 ± 0.02	0.837 ± 0.018	0.78 ± 0.017	0.729 ± 0.016	0.683 ± 0.015
x1 = 0.03106	1.005 ± 0.022	0.928 ± 0.02	0.86 ± 0.019	0.801 ± 0.017	0.75 ± 0.016	0.702 ± 0.015
x1 = 0.03264	1.017 ± 0.022	0.939 ± 0.021	0.871 ± 0.019	0.811 ± 0.018	0.759 ± 0.017	0.711 ± 0.016
x1 = 0.03671	1.052 ± 0.023	0.972 ± 0.021	0.902 ± 0.02	0.839 ± 0.018	0.784 ± 0.017	0.735 ± 0.016
x1 = 0.04003	1.084 ± 0.024	1.001 ± 0.022	0.928 ± 0.02	0.864 ± 0.019	0.807 ± 0.018	0.756 ± 0.017
x1 = 0.04547	1.132 ± 0.025	1.046 ± 0.023	0.97 ± 0.021	0.903 ± 0.02	0.843 ± 0.018	0.79 ± 0.017
x1 = 0.04804	1.154 ± 0.025	1.065 ± 0.023	0.989 ± 0.022	0.92 ± 0.02	0.859 ± 0.019	0.805 ± 0.018
x1 = 0.05983	1.271 ± 0.028	1.171 ± 0.026	1.086 ± 0.024	1.01 ± 0.022	0.942 ± 0.021	0.881 ± 0.019

OCC(F)(F)F + COP(=O)([O-])OC.Cn1cc[n+](C)c1
viscosity [mPa·s], 101 kPa
Conditions	298.15 K	333.15 K
x2 = 0.4904	42.9 ± 1.8	–
x2 = 0.803	158.2 ± 8.6	31.5 ± 1.3

CCCO + CS(=O)(=O)[O-].C[N+](C)(CCO)CCO
101 kPa, x2 = 0
Conditions	viscosity [mPa·s]
298.15 K	1.95 ± 0.12
303.15 K	1.73 ± 0.11
308.15 K	1.545 ± 0.093
313.15 K	1.383 ± 0.084
318.15 K	1.247 ± 0.075
323.15 K	1.136 ± 0.069
